Measured values: patent publication US20240238266A1 (Novartis AG, priority 2021, published 2024)

How the values were obtained:
AP activity (Wieslab) = assay: First in human (FIH) studies: suppression of AP activity (Wieslab); type: in vivo
[1] = Human absorption, distribution, metabolism, and excretion (ADME) study in healthy volunteers; type: in vivo
[2] = system: organic anion-transporting polypeptide (OATP) hepatic uptake transporter; assay: Preclinical studies of systemic disposition: hepatic uptake transporter; type: in vitro ADME
Excerpt: In addition, some contribution from direct kidney (approximately 20%) and direct biliary excretion (around 5 to 10%) is anticipated. Iptacopan is also a substrate for the organic anion-transporting polypeptide (OATP) hepatic uptake transporter. […] Typical examples are digoxin, quinidine, paclitaxel, fentanyl and phenytoin. However, if no alternative treatment is available, a staggered dosing approach is recommended (refer to Section 6.2.1.1). • · Concomitant medication listed under exclusion criteria 25 and 26 is prohibited except for the condition specified in the criterion.

[3] = Food effect in study CLNP023X2101; type: in vivo
AP = conditions: multiple in vitro and in vivo non-clinical studies (Schubart 2019); cited from earlier work

## CCO[C@H]1CCN(Cc2c(OC)cc(C)c3[nH]ccc23)[C@H](c2ccc(C(=O)O)cc2)C1 [iptacopan, 4-((2S,4S)-(4-ethoxy-1-((5-methoxy-7-methyl-1H-indol-4-yl)methyl)piperidin-2-yl))benzoic acid]
AP activity (Wieslab); about 200 mg b.i.d, in most participants, model developed with FIH data in healthy volunteers
  inhibition of the AP (Wieslab assay) predicted by exposure-response model: > 90%
AP activity (Wieslab); over 14 days of dosing at 200 mg b.i.d
  suppression of the AP (inhibition), sustained: ≥ 80%
AP activity (Wieslab); two hours post-dose, single dose of 200 mg, FIH study participants
  inhibition of AP activity (Wieslab): ≥ 80%
[1]
  direct kidney excretion, share of overall iptacopan dose: 20-25%
  kidney contribution to the overall iptacopan clearance: 20-25%
[2]
  substrate of OATP hepatic uptake transporter: substrate
[3]
  food effect: no food effect
AP
  inhibition of the AP: demonstrated inhibition of the AP
